A word on the melting point: it is the temperature, or range, at which the solid turns liquid.

For the molecule `CC1(Cc2cccc(N)c2)Cc2ccccc2C1=O` (stereo not drawn), the melting point was 95 to 98 °C.

The molecule `O=C(CC(=O)C(F)F)c1cccs1` returned a melting point of 78 to 80 °C.

Regarding `O=C(OC1CCN(Cc2ccccc2)CC1)c1ccc([N+](=O)[O-])cc1`, the melting point is 87 to 89 °C.

In turn, `O=c1oc(-c2cccc(Oc3ccccc3)c2)cc(O)c1SCCc1ccccc1` had a melting point of 114 to 115 °C.

`COc1ccc(C(=O)Nc2cc(-c3c(-c4cccc(C)c4)nc4cccnn34)ccn2)cc1` gave a melting point of 177 to 178 °C.

As for `Nc1cc(OCc2ccccc2)cc(OCc2ccccc2)c1`, the melting point lay in the range of 77 to 80 °C.

Regarding `O=C(NCC(O)c1ccccc1)c1ccc2n1Cc1ccccc1N(C(=O)COc1ccc(Cl)cc1)C2` (stereo not drawn), the melting point is 157 to 158 °C.

`COC(=O)C1=Cc2cc(-c3ccc(OCCOC(C)C)cc3)ccc2N(S(C)(=O)=O)CC1` registered a melting point of 119 to 121 °C.

Regarding `CN(c1cccc2cc(C(N)=S)[nH]c12)S(=O)(=O)c1cccs1`, the melting point was 239 to 240 °C.

Take `CCOc1cc(C)ccc1S(N)(=O)=O`: the melting point is 136 to 137 °C.

In turn, `CCC(=O)OC1(c2ccccc2)CCN(CCN2CNC(=O)c3ccccc32)CC1` displayed a melting point of 141 to 144 °C.

`O=C1C(=Cc2cccnc2)CCc2ccc(Br)cc21` returned a melting point of 124 to 125 °C.

For `COc1ccc(OCc2nc(N)c3nccnc3n2)cc1`, the melting point was 238 to 240 °C.

In the case of `Cc1ccc(CNc2nc(OCC(F)(F)F)nc(Oc3cccc(C(F)(F)F)c3)n2)o1`, the melting point is 116 to 118 °C.

Turning to `COc1cc(C(=O)NS(=O)(=O)c2ccccc2)ccc1Cn1nc(OC)c2ccc(NC(=O)OC3CCCC3)cc21`, the melting point fell in the range of 246 to 248 °C.

`Oc1cc2c(cc1O)OCC(c1cccc(C(F)(F)F)c1)C2` (stereo not drawn) registered a melting point of 139 to 141 °C.

With `CCCCOc1nc(NC2=CCC(=C=C3CC4CCC3(C)C4(C)C)C=C2)nc(NC2=CCC(=C=C3CC4CCC3(C)C4(C)C)C=C2)n1`, the melting point was found to be 181 °C.

`CC(=O)NC(=S)NCC1CC2c3cccc4[nH]cc(c34)CC2N(C)C1` (stereo not drawn): the melting point is 204 to 205 °C.

`Nc1ccc2snc(-c3sccc3Cl)c2c1` gave a melting point of 128 to 132 °C.

Regarding `N#Cc1c(Cl)[nH]c2ccccc12`, the melting point lay in the range of 177 to 180 °C.

Regarding `O=C(O)CC(NC(=O)C1CCCN2C(=O)CCC(NC(=O)c3ccccc3)C(=O)N12)C(=O)COC(=O)c1c(Cl)cccc1Cl` (stereo not drawn), the melting point was 126 to 130 °C.

As to `Nc1c(Cl)cc(Nc2ncnc3cnc(N[C@H]4CC[C@H](C(=O)N5CCCC5)CC4)nc23)cc1Cl`, the melting point fell in the range of 228 to 230 °C.

As to `COc1cc2cc(CO)c(CO)c(-c3ccnc(NC(C)CCCO)c3)c2cc1OC` (stereo not drawn), the melting point is 57 to 61 °C.

The molecule `COc1cc2c(Nc3ccc(Cl)cc3F)ncnc2cc1OCCSC` showed a melting point of 174 to 176 °C.

In turn, `O=C(c1cccc(-c2cc3ccccc3[nH]2)c1)c1cc2ccccc2[nH]1` yielded a melting point of 206 to 207 °C.

The molecule `CCn1c(=O)c2c(nc(/C=C/c3ccc(O)c(C)c3C)n2C)n(CC)c1=O` yielded a melting point of 240 to 242 °C.

`CC1(C)C(=O)Oc2ccc3cc(C#N)c(Cn4cncn4)cc3c21` yielded a melting point of 198 °C.

`O=C1OCCN1c1ccc(OC(F)C(F)(F)F)cc1` (stereo not drawn) showed a melting point of 74 to 76 °C.

The molecule `S=C1NCC2(CC2)CN1` displayed a melting point of 220 to 222 °C.

`CCOC(=O)C(=CNc1nnc(N2CCOC(C)C2)s1)C(=O)OCC` (stereo not drawn): the melting point lay in the range of 89 to 91 °C.

`Cc1nc(-c2ccc(Cl)cc2)c(CC(=O)O)o1` yielded a melting point of 215 to 216 °C.

Molecule `COc1ccccc1C1(CC(=O)O)C(=O)Nc2cc(Cl)c(Cl)cc21` (stereo not drawn) displayed a melting point of 222 to 224 °C.

With `C=C=Cn1c(=O)sc2cc(F)c(-n3c(=O)cc(C)n(C)c3=O)cc21`, the melting point is > 250 °C.

On to `Cc1ccc2cccc(N(Cc3c(Cl)ccc([N+](=O)[O-])c3Cl)C(=O)OC(C)(C)C)c2n1`, for which the melting point fell in the range of 130 to 131 °C.

In turn, `CCCC(OC)(C(=O)n1ccnc1)c1ccc(Cl)cc1Cl` (stereo not drawn) had a melting point of 99 to 101 °C.

As to `Cc1cc(Br)c(S(C)(=O)=O)cc1C(=O)N=C(N)N`, the melting point fell in the range of 207 to 208 °C.

The molecule `OCCNc1nc(NCc2ccccc2)c2ncc(Cl)cc2n1` came in with a melting point of 106 to 107 °C.

`NC(=NO)c1nn([C@@H]2O[C@H](CO)[C@@H](O)[C@H]2O)c2ncnc(N)c12` yielded a melting point of 242 to 244 °C.

Molecule `C=CCN1CC(=O)C(C#N)=C1N` gave a melting point of 275 to 278 °C.

For `CCCCc1nc2c(N)nc3ccccc3c2n1CCCCNC(=O)Nc1cccc(NC(=O)NCCCCn2c(CCCC)nc3c(N)nc4ccccc4c32)c1`, the melting point lay within 160 to 166 °C.

`Cc1oc(-c2ccccc2)nc1COc1ccc(Cn2cc(CCC(=O)O)c(-c3ccccc3)n2)cc1` registered a melting point of 179 to 180 °C.

For `CC1(c2ccccc2)SC(=Nc2ccc(Cl)cc2)N(Nc2ccccc2)C1=O` (stereo not drawn), the melting point fell in the range of 53 to 54 °C.

`COc1ccc(C(=O)Sc2ccccn2)cc1`: the melting point is 73 °C.

`COc1cc(-n2c(C#N)c3n(c2=O)CCCCC3)c(F)cc1Cl` had a melting point of 144 to 146 °C.

On to `CCCCNc1c(N)cc(C(=O)O)cc1S(N)(=O)=O`, for which the melting point lay in the range of 211 to 212 °C.

Turning to `O=C(O)CNC(=O)Nc1ccc(Cl)cc1`, the melting point was found to be 218 °C.

In turn, `CC(C)Nc1cccnc1N1CCN(C(=O)c2ccc(C(=O)NC[C@H](C)O)cc2)CC1` had a melting point of 135 °C.

In turn, `CCOc1ccc(Cn2cnc3c(-c4ccco4)ncnc32)cc1` came in with a melting point of 165 to 166 °C.

For the molecule `COc1ccc(C(Cc2ccc(C(N)=O)cc2)c2ccccc2)cc1OC1CCCC1` (stereo not drawn), the melting point fell in the range of 73 to 75 °C.

In turn, `CS(=O)(=O)c1ccc(-c2nc(C(F)(F)F)nc(N=[N+]=[N-])c2-c2ccc(Cl)cc2)cc1` registered a melting point of 317 to 320 °C.

Consider `Cc1ccc(C(=O)Nc2ccc(N3CCN(Cc4ccc[nH]4)CC3)cc2)c(-c2ccc(C(F)(F)F)cc2)c1`, for which the melting point is 196 to 198 °C.

`NC(=S)N1CCN(c2nc3cccccc-3n2)CC1` registered a melting point of 245 to 247 °C.

In turn, `CCOC(=O)C(C)(C)Oc1ccc(OCCn2c(=O)sc3cc(C(=O)c4cccc(Cl)c4)ccc32)cc1` showed a melting point of 125 to 126 °C.

On to `CN1CN(C2CCCC2)CN(c2nc3c(s2)C(=O)CC(C)(C)C3)C1=O`, for which the melting point was 181 to 183 °C.

In turn, `COc1ccc(COc2cccnc2NC(=S)Nc2ccc(Cl)cc2)cc1` registered a melting point of 136 to 138 °C.

For the molecule `CCCCCCCCCCCCNC(=O)Oc1ccc2oc3ccccc3c2c1`, the melting point lay within 112 to 114 °C.

Turning to `Nc1nc(NCCSSCCNc2n[nH]c(N)n2)n[nH]1`, the melting point fell in the range of 231 to 233 °C.

Take `CCOC(=O)c1cc(S(=O)C(F)(F)C(F)F)c(-c2ccc(Cl)cc2)[nH]1` (stereo not drawn): the melting point lay within 138 to 140 °C.

Consider `COC(=O)c1ccc(NC(=O)C(CC2CCCC2)c2ccc(F)c(C(F)(F)F)c2)nc1` (stereo not drawn), for which the melting point was 270 to 275 °C.

On to `Nc1ccc2c(c1)NC(=O)C(CCCN1CCN(c3ccc(F)cc3)CC1)O2` (stereo not drawn), for which the melting point lay within 158 to 159 °C.

Regarding `Cn1c(=O)c(-c2c(Cl)cccc2Cl)cc2cnc(Nc3ccccc3)nc21`, the melting point is 247 to 249 °C.

`N#Cc1ccc(C(=O)N2CCC3(CC2)C(=O)NC(=O)N3Cc2ccccc2)cc1` showed a melting point of 207 to 209 °C.

On to `O=C(Nc1ccc2ccc(-c3ccc(Cl)cc3)nc2n1)c1cccc(Br)c1`, for which the melting point lay in the range of 220 to 224 °C.

For `CON=C(C#CCCl)C(=O)OC`, the melting point lay in the range of 64 to 67 °C.

The molecule `CN(Cc1cccc(O)c1)c1cnc(-c2ccccc2)c(-c2ccccc2)n1` yielded a melting point of 156 to 157 °C.

For the molecule `Cc1ccccc1-c1cc(C#N)c[nH]1`, the melting point lay in the range of 151 to 152 °C.

On to `CCCNC(=O)[C@H](C)C[C@H](O)[C@H](CC1CCCCC1)NC(=O)OC(C)(C)C`, for which the melting point was in the range of 115 to 116 °C.

As for `COc1nc(N)nc2c1CCC2`, the melting point was in the range of 134 to 135 °C.

Turning to `CCOP(=O)(CC(=O)Nc1c(C(C)C)cccc1C(C)C)c1ccccc1` (stereo not drawn), the melting point is 170 to 173 °C.

`CC(=O)Nc1cc(Cn2c(C(=O)c3cc(C)cc(C)c3)c(C(C)C)c(=O)[nH]c2=O)ccn1` yielded a melting point of 244 to 245 °C.

For the molecule `CCCCCC1(c2ccccc2)CC=CC(=O)O1` (stereo not drawn), the melting point is 123 to 124 °C.

Regarding `CON=C(C(=O)O)c1cccs1`, the melting point is 106 °C.

`O=C(NNS(=O)(=O)c1ccccc1)c1cc2ccccc2o1` displayed a melting point of 164 to 167 °C.

`Cc1cc2c(cc1Cl)C(CC(=O)O)(c1ccccc1OC(C)C)C(=O)N2` (stereo not drawn): the melting point lay within 148 to 150 °C.

Regarding `CCOC(=O)C(=NOC)c1nc(N)cc(Sc2ccccc2)n1`, the melting point lay within 154 to 156 °C.

For the molecule `CC(=O)N1c2ccccc2Sc2nccnc21`, the melting point lay within 174 to 175 °C.

As to `COc1ccc(C(=O)N2CCC(Nc3nccc(-c4c(-c5ccc(F)cc5)nc5occn45)n3)CC2)cc1`, the melting point was in the range of 196 to 197 °C.

Turning to `Cc1cc([N+](=O)[O-])c(NCC(O)CO)c([N+](=O)[O-])c1` (stereo not drawn), the melting point was determined as 118 °C.

Regarding `O=C(O)COCCN1CCN(C(c2ccccc2)c2ccccc2)CC1`, the melting point came out at 100 °C.

As to `Cc1cc(-c2c(-c3ccc(F)cc3)ncn2CCCN2CCOCC2)ccn1`, the melting point was 116 to 117 °C.

Molecule `CC1(C2CCC3C4CCC5CC=CCC5(C)C4C(=O)CC32C)OCCO1` (stereo not drawn) showed a melting point of 130 to 135 °C.

As to `COc1ccc(Cc2cnc(NCCCCc3ncc(Br)cc3C)[nH]c2=O)cc1`, the melting point was 149 to 150 °C.

`COc1cc(OCC(CO)CO)c(-c2cccs2)cc1C=CC(=O)c1ccc(S(N)(=O)=O)cc1` had a melting point of 191 to 192 °C.

In the case of `Cc1cccc(C(=O)NC(Nc2c(Nc3cccnc3Cl)c(=O)c2=O)C(C)(C)Cc2ccccc2)c1` (stereo not drawn), the melting point lay within 234 to 235 °C.

With `Cc1cc(O)nc2cc(Br)ccc12`, the melting point was 275 to 276 °C.

Molecule `CCCCCCOc1ccc(C=C(C#N)c2cccnc2)cc1` displayed a melting point of 67 to 68 °C.

As for `COc1cc(OC)nc(C(C)(C#N)c2cccc(Cl)c2)n1` (stereo not drawn), the melting point lay within 89 to 93 °C.

`CCOC(=O)c1cc(N=Cc2ccccc2)ccc1OC(C)=O` gave a melting point of 79 to 80 °C.

Source of the values: a melting point compilation (Tetko et al.; mined from patent text by program, amines drawn as free bases though some values may be those of a salt).
